Measurements from patent US11046710B2, “Sulfonamide compounds” (DAIICHI SANKYO COMPANY, LIMITED, priority 2016, dated 2021).

Test system: plasma ALP (80-90% containing TNAP)
Assay: Inhibitory test of plasma TNAP activity in B6 mouse
Type: in vivo
Conditions: oral, average 0-6 h after administration
Description: After blood sampling from the tail vein using a heparin-treated hematocrit capillary tube (EM Meister Hematocrit Capillary Tube, AS ONE Corp.) (as the sample before compound administration), each test compound suspended in a 0.5% methylcellulose solution (powder purchased from Wako Pure Chemical Industries, Ltd. was adjusted to 0.5% with Otsuka distilled water) was administered orally to the mouse. 1, 2, 4, 6, and 24 hours after the administration, blood was collected from the tail vein using a heparin-treated hematocrit capillary tube to obtain a plasma sample. The plasma sample was added to an assay buffer (1 M Tris, 1 M MgCl2, 20 mM ZnCl2, and water, pH 7.5), and the mixture was left standing for 5 minutes. Then, the absorbance at 405 nm was measured and used as a blank. The substrate pNPP was added to the plasma sample and incubated at room temperature for 180 minutes. Then, the absorbance (ABS: 405 nm) was measured using a microplate reader (model plus 384, Molecular Devices, LLC), and the concentration of produced p-nitrophenol was calculated. The blank was subtracted from all measurement values to calculate TNAP activity at each time point with the TNAP activity of the sample before compound administration defined as 100%. The pharmaceutical effect of the test compound was evaluated by the average inhibition of plasma ALP (80-90% containing TNAP) activity for 6 hours from 0 hour to 6 hour after the administration of the test compound. It was calculated according to the following expression: 100−((plasma ALP activity at 0 hr+plasma ALP activity at 1 hr)*½+(plasma ALP activity at 1 hr+plasma ALP activity at 2 hr)*½+(plasma ALP activity at 2 hr+plasma ALP activity at 4 hr)*2/2+(plasma ALP activity at 4 hr+plasma ALP activity at 6 hr)*2/2)/6 The results are shown in Table 2.

SMILES	Plasma ALP inhibition (6 h ave. inhibition %) (dose 3 mg/kg) [%]	Plasma ALP inhibition (6 h ave. inhibition %) (dose 1 mg/kg) [%]	other results
CCOc1ccc(F)cc1S(=O)(=O)[N-]c1cnc2c(c1)-c1ccnn1CCO2.[K+] [Example 10, Potassium 5,6-dihydropyrazolo[1,5-d]pyrido[3,2-f][1,4]oxazepin-10-yl[(2-ethoxy-5-fluorophenyl)sulfonyl]azanide]	43.3		
COc1ccc(Cl)cc1S(=O)(=O)[N-]c1cnc2c(c1)-c1ccnn1CCO2.[K+] [Example 8, Potassium [(5-chloro-2-methoxyphenyl)sulfonyl](5,6-dihydropyrazolo[1,5-d]pyrido[3,2-f][1,4]oxazepin-10-yl)azanide]	29.4		
COc1ncc(Cl)cc1S(=O)(=O)[N-]c1cnc2c(c1)-c1ccnn1[C@@H](C)CO2.[K+] [Example 22, potassium [(5-chloro-2-methoxypyridin-3-yl)sulfonyl][(5S)-5-methyl-5,6-dihydropyrazolo[1,5-d]pyrido[3,2-f][1,4]oxazepin-10-yl]azanide]	28.4		
COc1ccc(Cl)cc1S(=O)(=O)[N-]c1cnc2c(c1)-c1nnc(C)n1CCO2.[K+] [Example 2, Potassium [(5-chloro-2-methoxyphenyl)sulfonyl](3-methyl-5,6-dihydropyrido[3,2-f][1,2,4]triazolo[4,3-d][1,4]oxazepin-10-yl)azanide]		34.4	
CCOc1ncc(F)cc1S(=O)(=O)[N-]c1cnc2c(c1)-c1ccnn1[C@@H](C)CO2.[K+] [Example 25, potassium [(2-ethoxy-5-fluoropyridin-3-yl)sulfonyl][(5S)-5-methyl-5,6-dihydropyrazolo[1,5-d]pyrido[3,2-f][1,4]oxazepin-10-yl]azanide]	55.5		
O=C1c2cc([N-]S(=O)(=O)c3cc(Cl)ccc3OC(F)(F)F)cnc2OC[C@H]2C[C@@H](O)CN12.[K+] [Example 38, Potassium {[5-chloro-2-(trifluoromethoxy)phenyl]sulfonyl}[(8R,9aR)-8-hydroxy-5-oxo-8,9,9a,10-tetrahydro-5H,7H-pyrido[3,2-f]pyrrolo[2,1-c][1,4]oxazepin-3-yl]azanide]			Plasma ALP inhibition (6 h ave. inhibition %) (dose 0.3 mg/kg): 65.5%
COc1ccc(Cl)cc1S(=O)(=O)[N-]c1cnc2c(c1)CN1C(=O)[C@@H](O)C[C@H]1CO2.[K+] [Example 55, Potassium [(5-chloro-2-methoxyphenyl)sulfonyl][(8S,9aS)-8-hydroxy-7-oxo-8,9,9a,10-tetrahydro-5H,7H-pyrido[3,2-f]pyrrolo[2,1-c][1,4]oxazepin-3-yl]azanide]		65.7	
CCOc1ccc(F)cc1S(=O)(=O)[N-]c1cnc2c(c1)-c1ccnn1[C@@H](C)CO2.[K+] [Example 19, Potassium [(2-ethoxy-5-fluorophenyl)sulfonyl][(5S)-5-methyl-5,6-dihydropyrazolo[1,5-d]pyrido[3,2-f][1,4]oxazepin-10-yl]azanide]	27.5		
CCOc1ccc(F)cc1S(=O)(=O)[N-]c1cnc2c(c1)CN1C(=O)COC[C@H]1CO2.[K+] [Example 62, Potassium [(2-ethoxy-5-fluorophenyl)sulfonyl][(10aS)-7-oxo-7,8,10a,11-tetrahydro-5H,10H-[1,4]oxazino[3,4-c]pyrido[3,2-f][1,4]oxazepin-3-yl]azanide]		76.0	
O=C1c2cc([N-]S(=O)(=O)c3cc(Cl)ccc3OC(F)(F)F)cnc2OC[C@H]2C[C@H](O)CN12.[K+] [Example 33, Potassium {[5-chloro-2-(trifluoromethoxy)phenyl]sulfonyl}[(8S,9aR)-8-hydroxy-5-oxo-8,9,9a,10-tetrahydro-5H,7H-pyrido[3,2-f]pyrrolo[2,1-c][1,4]oxazepin-3-yl]azanide]			Plasma ALP inhibition (6 h ave. inhibition %) (dose 0.3 mg/kg): 59.0%
COC(=O)N[C@@H]1C[C@@H]2COc3ncc([N-]S(=O)(=O)c4cc(Cl)ccc4OC)cc3C(=O)N2C1.[K+] [Example 51, Potassium [(5-chloro-2-methoxyphenyl)sulfonyl]{(8R,9aR)-8-[(methoxycarbonyl)amino]-5-oxo-8,9,9a,10-tetrahydro-5H, 7H-pyrido[3,2-f]pyrrolo[2,1-c][1,4]oxazepin-3-yl}azanide]		59.7	
CNC(=O)O[C@H]1C[C@@H]2COc3ncc([N-]S(=O)(=O)c4cc(Cl)ccc4OC)cc3C(=O)N2C1.[K+] [Example 49, Potassium [(5-chloro-2-methoxyphenyl)sulfonyl]{(8S,9aR)-8-[(methylcarbamoyl)oxy]-5-oxo-8,9,9a,10-tetrahydro-5H,7H-pyrido[3,2-f]pyrrolo[2,1-c][1,4]oxazepin-3-yl}azanide]		52.8	
CCOc1ncc(F)cc1S(=O)(=O)[N-]c1cnc2c(c1)-c1ccnn1CCO2.[K+] [Example 15, Potassium 5,6-dihydropyrazolo[1,5-d]pyrido[3,2-f][1,4]oxazepin-10-yl[(2-ethoxy-5-fluoropyridin-3-yl)sulfonyl]azanide]	61.4		
O=C1c2cc([N-]S(=O)(=O)c3cc(Cl)ccc3OC(F)(F)F)cnc2OC[C@H]2[C@@H](O)CCN12.[K+] [Example 43, Potassium {[5-chloro-2-(trifluoromethoxy)phenyl]sulfonyl}[(9S,9aS)-9-hydroxy-5-oxo-8,9,9a,10-tetrahydro-5H,7H-pyrido[3,2-f]pyrrolo[2,1-c][1,4]oxazepin-3-yl]azanide]			Plasma ALP inhibition (6 h ave. inhibition %) (dose 0.3 mg/kg): 65.5%
CCc1nnc2n1CCOc1ncc([N-]S(=O)(=O)c3cc(Cl)ccc3OC)cc1-2.[K+] [Example 4, Potassium [(5-chloro-2-methoxyphenyl)sulfonyl](3-ethyl-5,6-dihydropyrido[3,2-f][1,2,4]triazolo[4,3-d][1,4]oxazepin-10-yl)azanide]		40.7	
